In ChEMBL document CHEMBL2385030, “Crystallographic Investigation and Selective Inhibition of Mutant Isocitrate Dehydrogenase” (ACS Med Chem Lett, 2013):

What was measured:
WI-38 = experiment: Cytotoxicity against human WI38 cells assessed as growth inhibition after 48 hrs by MTS assay; format: cell-based; conditions: WI-38, 48 h
[1] = biological target: Isocitrate dehydrogenase [NADP] cytoplasmic (Homo sapiens, UniProt O75874); experiment: Inhibition of wild type IDH1 (unknown origin) expressed in Escherichia coli BL21 using […] as substrate incubated for 5 mins prior to substrate addition measured every 30 secs
Chain of Isocitrate dehydrogenase [NADP] cytoplasmic (O75874 whole entry): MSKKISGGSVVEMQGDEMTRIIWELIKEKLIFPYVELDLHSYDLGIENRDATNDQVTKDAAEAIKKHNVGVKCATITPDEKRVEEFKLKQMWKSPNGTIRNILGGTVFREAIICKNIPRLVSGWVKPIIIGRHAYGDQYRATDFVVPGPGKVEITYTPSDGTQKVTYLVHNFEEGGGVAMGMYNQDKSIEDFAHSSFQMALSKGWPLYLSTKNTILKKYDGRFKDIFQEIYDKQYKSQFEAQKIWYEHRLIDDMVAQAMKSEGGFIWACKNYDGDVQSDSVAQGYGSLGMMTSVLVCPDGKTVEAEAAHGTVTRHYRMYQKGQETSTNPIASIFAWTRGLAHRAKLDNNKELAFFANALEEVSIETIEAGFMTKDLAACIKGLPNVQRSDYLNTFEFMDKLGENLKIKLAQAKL

Row | Ki [1] [µM] | SMILES | EC50 (WI-38) [µM]
1 | – | Cc1cc(Cc2ccccc2)n(O)c(=O)c1 | > 50
2 | – | Cc1cc(Cc2ccc(O)cc2)n(O)c(=O)c1 | > 50
3 | – | O=c1cccc(Cc2ccccc2)n1O | > 50
4 | – | CC(C)c1cc(Cc2ccccc2)n(O)c(=O)c1 | > 50
5 | > 50 | Cc1cc(-c2ccccc2)n(O)c(=O)c1 | –
